This note sets out measurements from patent publication US20100056522A1, “INTRAOCULAR PRESSURE-LOWERING AGENT COMPRISING COMPOUND HAVING HISTONE DEACETYLASE INHIBITOR EFFECT AS ACTIVE INGREDIENT” (Santen Pharmaceutical Co., Ltd., priority 2007, published 2010).

Test [1] has as its system TM-1 cells (human trabecular meshwork cell line). In words: Test for evaluation of effect of morphological change on trabecular meshwork cells (cell shape index). Particulars: 10 μM, 24 hours, control CSI 0.679, lower CSI indicates greater morphological change. The test is classed as cell-based. Here is the method: As a method for evaluating a cellular morphological change, an evaluation system using the cell shape index (hereinafter referred to as “CSI”) as an index has been reported in The Journal of Clinical Investigation, 103, 1141-1150 (1999). Therefore, according to the method described in the above document, an effect of morphological change by the present compounds on trabecular meshwork cells was evaluated.
A human trabecular meshwork cell line (hereinafter referred to as “TM-1 cells”) reported in Investigative Opthalmology & Visual Science, 43, 151-161 (2002) was used.
Culture medium 1: A reagent was prepared by adding fetal bovine serum (10%), L-glutamine (2 mM), amphotericin B (2.5 μg/mL), and gentamicin (25 μg/mL) to Dulbecco's Modified Eagle Medium (hereinafter referred to as “D-MEM”).
Culture medium 2: Fetal bovine serum (3%), L-glutamine (2 mM), amphotericin B (2.5 μg/mL), and gentamicin (25 μg/mL) were added to D-MEM.
Cell staining liquid: A mixed liquid of Calcein-AM (16 μM) and Hoechst 33342 (40 μM) was prepared by diluting a Calcein-AM solution (cytoplasmic staining reagent, manufactured by Dojindo Laboratories) and a Hoechst 33342 solution (nuclear staining reagent, manufactured by Dojindo Laboratories) with D-MEM containing L-glutamine (2 mM), amphotericin B (2.5 μg/mL), and gentamicin (25 μg/mL).
TM-1 cells subcultured at 37° C. in a 8% carbon dioxide gas atmosphere were treated with a trypsin/EDTA solution (0.05% trypsin and 0.53 mM tetrasodium ethylenediaminetetraacetate) at 24 hours before performing a drug treatment mentioned below and seeded on a 96-well culture plate. The culture medium 1 was used for the subculture of the cells. The culture medium 2 was used for the cell culture after seeding the cells on the plate.
A test compound was dissolved in dimethyl sulfoxide, whereby a 5 mM solution was prepared. Then, the resulting solution was diluted with the culture medium 2, whereby a 200 μM test compound solution was prepared.
It has been reported that Y-27632 which is a Rho kinase inhibitor induces a morphological change in trabecular meshwork cells in Investigative Opthalmology & Visual Science, 42, 137-144 (2001). Therefore, Y-27632 (produced according to the method described in WO 90/05723) was used as a positive control, and dissolved in dimethyl sulfoxide in the same manner as the test compound, whereby a 5 mM solution was prepared, and then, the resulting solution was diluted with the culture medium 2, whereby a 200 μM positive control compound solution was prepared.
1) To a 96-well culture plate, a solution of TM-1 cells adjusted to a cell density of […] was added in an amount of 95 μL (1.5×10^4 cells) per well.
2) Incubation was performed at 37° C. in a 8% carbon dioxide gas atmosphere for 24 hours.
3) The test compound solution or positive control compound solution was added in an amount of 5 μL per well (the final concentration of the test compound or positive control compound was 10 μM). As a control, the culture medium 2 containing dimethyl sulfoxide (4%) was added in an amount of 5 μL per well.
4) Incubation was performed at 37° C. in a 8% carbon dioxide gas atmosphere for 24 hours.
5) The cell staining liquid was added in an amount of 10 μL per well.
6) Incubation was performed at 37° C. in a 8% carbon dioxide gas atmosphere for 1 hour to stain the cells.
7) A 37% formaldehyde solution was added in an amount of 10 μL per well.
8) Incubation was performed at room temperature for 1 hour to fix the cells.
9) Washing with phosphate-buffered saline was performed.
10) Using Array Scan Vti HCS reader (manufactured by Cellomics), images of stained cells magnified with a 20-fold objective lens were captured in 80 fields (10 fields×8 wells) per test compound addition group.
11) CSI was calculated for each cell and an average value was obtained for each test compound addition group.
CSI was calculated using the following equation.
CSI=4π×(Cell Area)/(Cell Perimeter)^2

Test [2] relates to HDAC (HeLa nuclear extract). In words: Test for evaluation of an HDAC inhibitory effect (HDAC Fluorimetric Assay/Drug Discovery Kit, Biomol). The class given is biochemical. The note with it: final concentration of test compound 30 μM, rates of more than 100% are shown as 100%. Here is the method:
Using HDAC Fluorimetric Assay/Drug Discovery Kit (manufactured by Biomol), an HDAC inhibitory effect of the present compounds was measured according to the protocol included with the kit. The kit contains Buffer, HeLa nuclear extract (includes an HDAC), Substrate, Developer and Trichostatin A (an HDAC inhibitor).
A test compound was dissolved in dimethyl sulfoxide, whereby a 2 mg/mL solution was prepared. Then, the resulting solution was diluted with Buffer containing 5% dimethyl sulfoxide, whereby a 150 μM test compound solution was prepared.
1) To a 384-well culture plate, the test compound solution was added in an amount of 2 μL per well.
2) HeLa nuclear extract was diluted 30-fold with Buffer. The resulting solution was added in an amount of 3 μL per well and then, incubation was performed at 37° C. for 2 hours.
3) Substrate was diluted 500-fold with Buffer. The resulting solution was added in an amount of 5 μL per well (the final concentration of the test compound was 30 μM) and then, incubation was performed at 37° C. for 10 minutes.
4) Developer was diluted 20-fold with Buffer and Trichostatin A (2 μM) was added to it. The resulting solution was added in an amount of 10 μL per well and then, incubation was performed at room temperature for 15 minutes.
5) The fluorescence intensity of each well was measured using multilabel counter ARVO (manufactured by Wallac) with excitation at 360 nm and emission at 460 nm.
6) A control data was obtained from the same experiment except that Buffer containing 5% DMSO was added instead of the test compound solution as the above-mentioned procedure from 1) to 5).
7) A blank data was obtained from the same experiment except that Buffer containing 5% DMSO was added instead of the test compound solution and that Buffer was added instead of Hela nuclear extract as the above-mentioned procedure from 1) to 5).
Enzyme inhibitory rate (%) was calculated using the following equation.
(Enzyme Inhibitory Rate(%))=100×[1−{(Fluorescence Intensity of Test Compound Solution)−(Florescence Intensity of Blank)}/{(Florescence Intensity of Control)−(Florescence Intensity of Blank)}]

Test [3] has as its system male Japanese White rabbits. Kind of test: Test for evaluation of intraocular pressure-lowering effect by intracameral administration. The test is classed as in vivo. The note with it: 1 mM administration liquid, 20 μL intracameral, 8 or 9 hours after administration, vs vehicle control group, 6 cases. The protocol: In order to evaluate an intraocular pressure-lowering effect of the present compounds, a test for evaluation of intraocular pressure-lowering effect by intracameral administration of a drug using male Japanese White rabbits was performed.
A test compound was dissolved or suspended in physiological saline containing 0.5% dimethyl sulfoxide, whereby a 0.1 mM or 1 mM test compound administration liquid was prepared.
One drop of 0.4% oxybuprocaine hydrochloride eye drop was instilled into both eyes of each male Japanese White rabbit to achieve local anesthesia, and thereafter, the intraocular pressure was measured using an applanation tonometer. Then, by using a syringe fitted with a 30-gauge needle, the test compound administration liquid (20 μL) was intracamerally administered to one eye. As a control, 20 μL of the vehicle (physiological saline containing 0.5% dimethyl sulfoxide) for the test compound was intracamerally administered. After the lapse of a certain period of time from the administration of the test compound or vehicle, one drop of 0.4% oxybuprocaine hydrochloride eye drop was instilled into the administered eye to achieve local anesthesia, and thereafter, the intraocular pressure was measured using an applanation tonometer.
The intraocular pressure-lowering effect of each test compound was evaluated by calculating an intraocular pressure reduction rate. The intraocular pressure reduction rate (%) was calculated using the following equation.
(Intraocular Pressure Reduction Rate(%))=100×[{(Average Value of Intraocular Pressure of Control Group)−(Average Value of Intraocular Pressure of Each Test Compound Administration Group)}/(Average Value of Intraocular Pressure of Control Group)]

`Nc1ccccc1NC(=O)c1ccc(CN(CCCN2CCCC2)C(=O)Nc2cccnc2)cn1` [Compound 1-58, N-(2-Aminophenyl)-5-[3-(pyridin-3-yl)-1-[3-(pyrrolidin-1-yl)propyl]ureidomethyl]pyridine-2-carboxylic acid amide] came in with a CSI in test [1] of 0.518. Also, the “Enzyme Inhibitory Rate (%)” value in test [2] was 98%.

In test [1], `CN1CCN(CCN(Cc2ccc(C(=O)Nc3ccccc3N)nc2)C(=O)Nc2cccc(F)c2)CC1` [Compound 1-63, N-(2-Aminophenyl)-5-[3-(3-fluorophenyl)-1-[2-(4-methylpiperazin-1-yl)ethyl]ureidomethyl]pyridine-2-carboxylic acid amide] returned a CSI of 0.521. Moreover, the “Enzyme Inhibitory Rate (%)” value in test [2] worked out at 97%.

`CN1CCN(CCCN(Cc2ccc(C(=O)Nc3ccccc3N)nc2)C(=O)Nc2ccc3c(c2)OCCO3)CC1` [Compound 1-68, N-(2-Aminophenyl)-5-[3-(2,3-dihydrobenzo[1,4]dioxin-6-yl)-1-[3-(4-methylpiperazin-1-yl)propyl]ureidomethyl]pyridine-2-carboxylic acid amide] came in with a CSI in test [1] of 0.502. The “Enzyme Inhibitory Rate (%)” value in test [2] worked out at 99%.

Take `Cc1cccc(NC(=O)N(CCN(C)C)Cc2ccc(C(=O)Nc3ccccc3N)nc2)c1` [Compound 1-79, N-(2-Aminophenyl)-5-[1-(2-dimethylaminoethyl)-3-(3-methylphenyl)ureidomethyl]pyridine-2-carboxylic acid amide]: the CSI in test [1] is on record as 0.497. In addition, the “Enzyme Inhibitory Rate (%)” value in test [2] turned out to be 98%.

As for `Nc1ccccc1NC(=O)c1ccc(CN(CCCCN2CCOCC2)C(=O)Nc2ccc3c(c2)OCCO3)cn1` [Compound 1-90, N-(2-Aminophenyl)-5-[3-(2,3-dihydrobenzo[1,4]dioxin-6-yl)-1-[4-(morpholin-4-yl)butyl]ureidomethyl]pyridine-2-carboxylic acid amide], in test [1], the CSI was 0.480. Besides, in test [2], the “Enzyme Inhibitory Rate (%)” value is 98%.

`COc1ccccc1NC(=O)N(CCCCN1CCOCC1)Cc1ccc(C(=O)Nc2ccccc2N)nc1` [Compound 1-115, N-(2-Aminophenyl)-5-[3-(2-methoxyphenyl)-1-[4-(morpholin-4-yl)butyl]ureidomethyl]pyridine-2-carboxylic acid amide]: in test [1], the CSI stood at 0.467. Moreover, the “Enzyme Inhibitory Rate (%)” value in test [2] was determined as 97%.

Take `Cc1cccc(NC(=O)N(CCCN2CCC(C)CC2)Cc2ccc(C(=O)Nc3ccccc3N)nc2)c1` [Compound 1-116, N-(2-Aminophenyl)-5-[3-(3-methylphenyl)-1-[3-(4-methylpiperidin-1-yl)propyl]ureidomethyl]pyridine-2-carboxylic acid amide]: in test [1], the CSI was found to be 0.455. Further, the “Enzyme Inhibitory Rate (%)” value in test [2] was determined as 100%.

Regarding `Nc1ccccc1NC(=O)c1ccc(CN(CCCCCN2CCOCC2)C(=O)NC2CCCC2)cn1` [Compound 1-141, N-(2-Aminophenyl)-5-[3-cyclopentyl-1-[5-(morpholin-4-yl)pentyl]ureidomethyl]pyridine-2-carboxylic acid amide], the CSI in test [1] is 0.515. Further, the “Enzyme Inhibitory Rate (%)” value in test [2] turned out to be 91%.

`CN(C)c1ccc(NC(=O)N(CCCN2CCOCC2)Cc2ccc(C(=O)Nc3ccccc3N)nc2)cc1` [Compound 2-1, N-(2-Aminophenyl)-5-[3-(4-dimethylaminophenyl)-1-[3-(morpholin-4-yl)propyl]ureidomethyl]pyridine-2-carboxylic acid amide]: in test [1], the CSI came to 0.574. In test [2], the “Enzyme Inhibitory Rate (%)” value turned out to be 98%.

`CCN(CC)c1ccc(NC(=O)N(CCCN(C)C)Cc2ccc(C(=O)Nc3ccccc3N)nc2)cc1` [Compound 2-3, N-(2-Aminophenyl)-5-[3-(4-diethylaminophenyl)-1-(3-dimethylaminopropyl)ureidomethy]pyridine-2-carboxylic acid amide]: the CSI in test [1] came out at 0.550. For the same molecule, the “Enzyme Inhibitory Rate (%)” value in test [2] was found to be 100%.

`Nc1ccccc1NC(=O)c1ccc(CN(CCO)C(=O)Nc2ccc3c(c2)OCCO3)cn1` [Compound 2-10, N-(2-Aminophenyl)-5-[3-(2,3-dihydrobenzo[1,4]dioxin-6-yl)-1-(2-hydroxyethyl)ureidomethyl]pyridine-2-carboxylic acid amide]: the CSI in test [1] was 0.582. The “Enzyme Inhibitory Rate (%)” value in test [2] came out at 99%.

For the molecule `CN(C)c1ccc(C(=O)NCCCCCCC(=O)NO)cc1` [M 344, 4-Dimethylamino-N-(6-hydroxycarbamoylhexyl)benzamide, reference compound], the CSI in test [1] came to 0.500. In addition, the “Enzyme Inhibitory Rate (%)” value in test [2] is listed as 99%.

For the molecule `Cc1ccc(C(=O)c2cc(/C=C/C(=O)NO)n(C)c2)cc1` [MC1293, (E)-N-Hydroxy-3-[1-methyl-4-(4-methylbenzoyl)-1H-pyrrol-2-yl]-2-propenamide, reference compound], the CSI in test [1] is on record as 0.628. In addition, the “Enzyme Inhibitory Rate (%)” value in test [2] was determined as 65%.

In test [1], `O=C(CCCCCCC(=O)Nc1ccccc1)NO` [SAHA, N-Hydroxy-N′-phenyloctanediamide, reference compound] showed a CSI of 0.501. In test [3], the “Intraocular Pressure Reduction Rate (%)” value was found to be 17%.
